Test results published in PubChem BioAssay (NCI).
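Exposure lasted 48 hours, with cells grown in 96-well plates and compounds tested at five concentrations. GI50 marks 50% less growth. TGI is the concentration that stops growth completely.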

Legend:
Assay in all cases: NCI-60 cell line screen, 48 h
SK-MEL-5 melanoma = test system: SK-MEL-5 melanoma
A498 renal = test system: A498 renal
HL-60(TB) leukemia = test system: HL-60(TB) leukemia
BT-549 breast = test system: BT-549 breast
NCI-H226 lung = test system: NCI-H226 lung
OVCAR-5 ovarian = test system: OVCAR-5 ovarian
CAKI-1 renal = test system: CAKI-1 renal
NCI/ADR-RES ovarian = test system: NCI/ADR-RES ovarian
SF-295 CNS = test system: SF-295 CNS
HS 578T breast = test system: HS 578T breast
SF-539 CNS = test system: SF-539 CNS
MDA-MB-231 breast = test system: MDA-MB-231 breast
DU-145 prostate = test system: DU-145 prostate
UO-31 renal = test system: UO-31 renal
786-0 renal = test system: 786-0 renal
RXF 393 renal = test system: RXF 393 renal
UACC-62 melanoma = test system: UACC-62 melanoma
SW-620 colon = test system: SW-620 colon
SK-OV-3 ovarian = test system: SK-OV-3 ovarian
SNB-75 CNS = test system: SNB-75 CNS
SR leukemia = test system: SR leukemia
ACHN renal = test system: ACHN renal
HCC-2998 colon = test system: HCC-2998 colon
SN12C renal = test system: SN12C renal
HOP-92 NSCLC = test system: HOP-92 NSCLC
HCT-116 colon = test system: HCT-116 colon
TK-10 renal = test system: TK-10 renal
SK-MEL-28 melanoma = test system: SK-MEL-28 melanoma
OVCAR-8 ovarian = test system: OVCAR-8 ovarian
PC-3 prostate = test system: PC-3 prostate
A549 NSCLC = test system: A549 NSCLC
MALME-3M melanoma = test system: MALME-3M melanoma
HT29 colon = test system: HT29 colon
COLO 205 colon = test system: COLO 205 colon
NCI-H522 lung = test system: NCI-H522 lung
T-47D breast = test system: T-47D breast
NCI-H460 lung = test system: NCI-H460 lung
MOLT-4 leukemia = test system: MOLT-4 leukemia
HOP-62 NSCLC = test system: HOP-62 NSCLC
SNB-19 CNS = test system: SNB-19 CNS
U251 CNS = test system: U251 CNS
MCF7 breast = test system: MCF7 breast
OVCAR-3 ovarian = test system: OVCAR-3 ovarian
K-562 leukemia = test system: K-562 leukemia
SF-268 CNS = test system: SF-268 CNS
RPMI-8226 leukemia = test system: RPMI-8226 leukemia
HCT-15 colon = test system: HCT-15 colon
MDA-MB-435 = test system: MDA-MB-435
OVCAR-4 ovarian = test system: OVCAR-4 ovarian
KM12 colon = test system: KM12 colon
LOX IMVI melanoma = test system: LOX IMVI melanoma
EKVX NSCLC = test system: EKVX NSCLC
NCI-H23 lung = test system: NCI-H23 lung
UACC-257 melanoma = test system: UACC-257 melanoma
IGROV1 ovarian = test system: IGROV1 ovarian
CCRF-CEM leukemia = test system: CCRF-CEM leukemia
M14 melanoma = test system: M14 melanoma
SK-MEL-2 melanoma = test system: SK-MEL-2 melanoma

Cc1cn(-c2cc(F)cc(NC(=O)c3ccc(C)c(Nc4nccc(-c5cccnc5)n4)c3)c2)cn1
GI50 (SK-MEL-5 melanoma): > 100 µM
TGI (SK-MEL-5 melanoma): > 100 µM
GI50 (A498 renal): > 100 µM
TGI (A498 renal): > 100 µM
GI50 (HL-60(TB) leukemia): > 100 µM
TGI (HL-60(TB) leukemia): > 100 µM

CN(C)c1ccc(-c2ccc(-c3ccc(C(=N)N)cc3)s2)cc1
GI50 (BT-549 breast): 21 µM
TGI (BT-549 breast): 78.3 µM
GI50 (NCI-H226 lung): 32.6 µM
TGI (NCI-H226 lung): > 100 µM
GI50 (OVCAR-5 ovarian): 1.73 µM
TGI (OVCAR-5 ovarian): 3.38 µM
GI50 (CAKI-1 renal): 1.79 µM
TGI (CAKI-1 renal): 3.77 µM
GI50 (NCI/ADR-RES ovarian): 2.35 µM
TGI (NCI/ADR-RES ovarian): 5.45 µM
GI50 (A498 renal): 0.0155 µM
TGI (A498 renal): 0.0866 µM
GI50 (SF-295 CNS): 1.9 µM
TGI (SF-295 CNS): 3.61 µM
GI50 (HS 578T breast): 2.14 µM
TGI (HS 578T breast): 5.19 µM
GI50 (SF-539 CNS): 1.76 µM
TGI (SF-539 CNS): 3.38 µM
GI50 (MDA-MB-231 breast): 1.81 µM
TGI (MDA-MB-231 breast): 3.57 µM
GI50 (DU-145 prostate): 1.8 µM
TGI (DU-145 prostate): 3.37 µM
GI50 (UO-31 renal): 1.64 µM
TGI (UO-31 renal): 3.22 µM
GI50 (786-0 renal): 2.21 µM
TGI (786-0 renal): 5.06 µM
GI50 (RXF 393 renal): 1.81 µM
TGI (RXF 393 renal): 3.99 µM
GI50 (HL-60(TB) leukemia): 2.03 µM
TGI (HL-60(TB) leukemia): 4.57 µM

OC(c1cc2ccc(C(F)(F)F)cc2c2cc(C(F)(F)F)ccc12)C1CCCCN1 (configuration not stated)
TGI (UACC-62 melanoma): 3.49 µM
TGI (SW-620 colon): 2.84 µM
TGI (SK-OV-3 ovarian): 3.82 µM
TGI (SNB-75 CNS): 2.57 µM
TGI (OVCAR-5 ovarian): 3.18 µM
TGI (SR leukemia): 4.99 µM
TGI (ACHN renal): 2.62 µM
TGI (HCC-2998 colon): 2.62 µM
TGI (SN12C renal): 3.26 µM
TGI (CAKI-1 renal): 3.13 µM
TGI (SK-MEL-5 melanoma): 2.89 µM
GI50 (SF-295 CNS): 1.83 µM
TGI (SF-295 CNS): 3.41 µM
TGI (HOP-92 NSCLC): 3.19 µM
TGI (HCT-116 colon): 2.8 µM
TGI (TK-10 renal): 3.71 µM
TGI (SK-MEL-28 melanoma): 3.36 µM
GI50 (OVCAR-8 ovarian): 1.86 µM
TGI (OVCAR-8 ovarian): 3.74 µM
TGI (MDA-MB-231 breast): 3.2 µM
TGI (DU-145 prostate): 3.21 µM
TGI (PC-3 prostate): 2.92 µM
TGI (UO-31 renal): 2.71 µM
TGI (A549 NSCLC): 3.26 µM
TGI (786-0 renal): 2.98 µM
TGI (MALME-3M melanoma): 1.5 µM
TGI (HT29 colon): 3.4 µM
TGI (COLO 205 colon): 3.05 µM
TGI (NCI-H522 lung): 3.16 µM
TGI (HL-60(TB) leukemia): > 100 µM

C=C1C(O)CC[C@]2(C)C1C1OC(C)(C)O[C@]13CC(=O)C(C)=C([C@H]1OC(C)(C)OC12)C3(C)C (some centres not stated)
TGI (T-47D breast): > 100 µM
TGI (UACC-62 melanoma): > 100 µM
TGI (SW-620 colon): > 100 µM
TGI (NCI-H460 lung): > 100 µM
TGI (MOLT-4 leukemia): > 100 µM
TGI (HOP-62 NSCLC): > 100 µM
TGI (SNB-19 CNS): > 100 µM
TGI (BT-549 breast): > 100 µM
TGI (SK-OV-3 ovarian): > 100 µM
TGI (SNB-75 CNS): > 100 µM
TGI (NCI-H226 lung): > 100 µM
TGI (OVCAR-5 ovarian): > 100 µM
TGI (SR leukemia): > 100 µM
TGI (ACHN renal): > 100 µM
TGI (HCC-2998 colon): > 100 µM
TGI (U251 CNS): > 100 µM
TGI (MCF7 breast): > 100 µM
TGI (SN12C renal): > 100 µM
TGI (CAKI-1 renal): > 100 µM
TGI (SK-MEL-5 melanoma): > 100 µM
TGI (OVCAR-3 ovarian): > 100 µM
TGI (K-562 leukemia): > 100 µM
TGI (SF-268 CNS): > 100 µM
TGI (RPMI-8226 leukemia): > 100 µM
TGI (NCI/ADR-RES ovarian): > 100 µM
TGI (A498 renal): > 100 µM
TGI (HCT-15 colon): > 100 µM
TGI (MDA-MB-435): > 100 µM
TGI (OVCAR-4 ovarian): > 100 µM
TGI (KM12 colon): > 100 µM
TGI (SF-295 CNS): > 100 µM
TGI (LOX IMVI melanoma): > 100 µM
TGI (HCT-116 colon): > 100 µM
TGI (TK-10 renal): > 100 µM
TGI (EKVX NSCLC): > 100 µM
TGI (SK-MEL-28 melanoma): > 100 µM
TGI (OVCAR-8 ovarian): > 100 µM
TGI (SF-539 CNS): > 100 µM
TGI (MDA-MB-231 breast): > 100 µM
TGI (DU-145 prostate): > 100 µM
TGI (NCI-H23 lung): > 100 µM
TGI (UO-31 renal): > 100 µM
TGI (A549 NSCLC): > 100 µM
TGI (UACC-257 melanoma): > 100 µM
TGI (IGROV1 ovarian): > 100 µM
TGI (786-0 renal): > 100 µM
TGI (MALME-3M melanoma): > 100 µM
TGI (HT29 colon): > 100 µM
TGI (COLO 205 colon): > 100 µM
TGI (CCRF-CEM leukemia): > 100 µM
TGI (RXF 393 renal): > 100 µM
TGI (HL-60(TB) leukemia): > 100 µM

CNc1ccc(C(=O)CC(O)CCC(C)C2OC(=O)CC(O)CC(=O)CC(O)CC(O)CC(O)CC(O)CC3(O)CC(O)C(C(=O)NCCN4CCCCC4)C(CC(OC4OC(C)C(O)C(N)C4O)/C=C/C=C/C=C/C=C\C=C/C=C/C=C/C2C)O3)cc1 (configuration not stated)
TGI (K-562 leukemia): > 100 µM
TGI (HL-60(TB) leukemia): > 100 µM

C=C(CNCCc1ccc(O)cc1)[C@@H]1CC[C@]2(COC3CCCCO3)CC[C@]3(C)[C@H](CC[C@@H]4[C@@]5(C)CCC(NCCO)C(C)(C)[C@@H]5CC[C@]43C)[C@@H]12 (some centres not stated)
GI50 (SW-620 colon): 0.211 µM
TGI (SW-620 colon): 0.453 µM
GI50 (NCI-H460 lung): 0.339 µM
TGI (NCI-H460 lung): 1.07 µM
GI50 (OVCAR-5 ovarian): 1.67 µM
TGI (OVCAR-5 ovarian): 3.13 µM
GI50 (ACHN renal): 1.64 µM
TGI (ACHN renal): 3.04 µM
GI50 (CAKI-1 renal): 1.52 µM
TGI (CAKI-1 renal): 2.86 µM
GI50 (OVCAR-3 ovarian): 1.28 µM
TGI (OVCAR-3 ovarian): 2.77 µM
GI50 (A498 renal): 1.33 µM
TGI (A498 renal): 2.72 µM
GI50 (HCT-15 colon): 0.39 µM
TGI (HCT-15 colon): 1.49 µM
GI50 (MDA-MB-435): 1.35 µM
TGI (MDA-MB-435): 2.65 µM
GI50 (OVCAR-4 ovarian): 1.39 µM
TGI (OVCAR-4 ovarian): 2.82 µM
GI50 (DU-145 prostate): 1.25 µM
TGI (DU-145 prostate): 2.58 µM

C=Cc1ccccc1C1(O)C=CC(OC)(OC)C=C1
TGI (T-47D breast): > 100 µM
TGI (UACC-62 melanoma): 17.6 µM
TGI (SW-620 colon): 11.5 µM
TGI (NCI-H460 lung): 21.9 µM
TGI (MOLT-4 leukemia): 10.6 µM
TGI (HOP-62 NSCLC): 19.5 µM
TGI (SNB-19 CNS): 30.8 µM
TGI (SK-OV-3 ovarian): 29.3 µM
TGI (SNB-75 CNS): 38.7 µM
TGI (NCI-H226 lung): 80.9 µM
TGI (OVCAR-5 ovarian): 20.2 µM
TGI (SR leukemia): 7.02 µM
TGI (ACHN renal): 39 µM
TGI (HCC-2998 colon): 33.4 µM
TGI (U251 CNS): 12.7 µM
TGI (MCF7 breast): 13.3 µM
TGI (SN12C renal): 24.4 µM
TGI (CAKI-1 renal): 18.4 µM
TGI (SK-MEL-5 melanoma): 26.9 µM
TGI (M14 melanoma): 18.5 µM
TGI (OVCAR-3 ovarian): 7.53 µM
TGI (K-562 leukemia): > 100 µM
TGI (SF-268 CNS): 33.9 µM
TGI (RPMI-8226 leukemia): 45.2 µM
TGI (SK-MEL-2 melanoma): 37.9 µM
TGI (NCI/ADR-RES ovarian): 29.4 µM
TGI (A498 renal): 41 µM
TGI (HCT-15 colon): 13.1 µM
TGI (MDA-MB-435): 14 µM
TGI (OVCAR-4 ovarian): 37.2 µM
TGI (KM12 colon): 19.4 µM
TGI (SF-295 CNS): 32.5 µM
TGI (HS 578T breast): > 100 µM
TGI (HCT-116 colon): 11.7 µM
TGI (TK-10 renal): 10.7 µM
TGI (EKVX NSCLC): 50.5 µM
TGI (SK-MEL-28 melanoma): 20.8 µM
TGI (OVCAR-8 ovarian): 3.65 µM
TGI (SF-539 CNS): 6.4 µM
TGI (MDA-MB-231 breast): 24.8 µM
TGI (DU-145 prostate): 68.8 µM
TGI (NCI-H23 lung): 16.2 µM
TGI (PC-3 prostate): 29.1 µM
TGI (UO-31 renal): 19.8 µM
TGI (A549 NSCLC): 36.9 µM
TGI (UACC-257 melanoma): 24.1 µM
TGI (IGROV1 ovarian): 27 µM
TGI (786-0 renal): 16.4 µM
TGI (MALME-3M melanoma): 27.8 µM
TGI (HT29 colon): 11.7 µM
TGI (COLO 205 colon): 25.9 µM
TGI (NCI-H522 lung): 23.9 µM
TGI (CCRF-CEM leukemia): 8.46 µM
TGI (RXF 393 renal): 14.8 µM
TGI (HL-60(TB) leukemia): 6.38 µM
